Laboratory results taken from ChEMBL document CHEMBL2057194, “Structure-activity relationships, ligand efficiency, and lipophilic efficiency profiles of benzophenone-type inhibitors of the multidrug transporter P-glycoprotein” (J Med Chem, 2012).

Each molecule was assayed against ATP-dependent translocase ABCB1 (Homo sapiens, UniProt P08183) (assay: Inhibition of P-glycoprotein-mediated daunorubicin efflux from human CCRF-CEM/VCR1000 cells after 240 secs by FACS flow cytometric analysis). Details: read-out: IC50.
Chain of ATP-dependent translocase ABCB1 (P08183 whole entry): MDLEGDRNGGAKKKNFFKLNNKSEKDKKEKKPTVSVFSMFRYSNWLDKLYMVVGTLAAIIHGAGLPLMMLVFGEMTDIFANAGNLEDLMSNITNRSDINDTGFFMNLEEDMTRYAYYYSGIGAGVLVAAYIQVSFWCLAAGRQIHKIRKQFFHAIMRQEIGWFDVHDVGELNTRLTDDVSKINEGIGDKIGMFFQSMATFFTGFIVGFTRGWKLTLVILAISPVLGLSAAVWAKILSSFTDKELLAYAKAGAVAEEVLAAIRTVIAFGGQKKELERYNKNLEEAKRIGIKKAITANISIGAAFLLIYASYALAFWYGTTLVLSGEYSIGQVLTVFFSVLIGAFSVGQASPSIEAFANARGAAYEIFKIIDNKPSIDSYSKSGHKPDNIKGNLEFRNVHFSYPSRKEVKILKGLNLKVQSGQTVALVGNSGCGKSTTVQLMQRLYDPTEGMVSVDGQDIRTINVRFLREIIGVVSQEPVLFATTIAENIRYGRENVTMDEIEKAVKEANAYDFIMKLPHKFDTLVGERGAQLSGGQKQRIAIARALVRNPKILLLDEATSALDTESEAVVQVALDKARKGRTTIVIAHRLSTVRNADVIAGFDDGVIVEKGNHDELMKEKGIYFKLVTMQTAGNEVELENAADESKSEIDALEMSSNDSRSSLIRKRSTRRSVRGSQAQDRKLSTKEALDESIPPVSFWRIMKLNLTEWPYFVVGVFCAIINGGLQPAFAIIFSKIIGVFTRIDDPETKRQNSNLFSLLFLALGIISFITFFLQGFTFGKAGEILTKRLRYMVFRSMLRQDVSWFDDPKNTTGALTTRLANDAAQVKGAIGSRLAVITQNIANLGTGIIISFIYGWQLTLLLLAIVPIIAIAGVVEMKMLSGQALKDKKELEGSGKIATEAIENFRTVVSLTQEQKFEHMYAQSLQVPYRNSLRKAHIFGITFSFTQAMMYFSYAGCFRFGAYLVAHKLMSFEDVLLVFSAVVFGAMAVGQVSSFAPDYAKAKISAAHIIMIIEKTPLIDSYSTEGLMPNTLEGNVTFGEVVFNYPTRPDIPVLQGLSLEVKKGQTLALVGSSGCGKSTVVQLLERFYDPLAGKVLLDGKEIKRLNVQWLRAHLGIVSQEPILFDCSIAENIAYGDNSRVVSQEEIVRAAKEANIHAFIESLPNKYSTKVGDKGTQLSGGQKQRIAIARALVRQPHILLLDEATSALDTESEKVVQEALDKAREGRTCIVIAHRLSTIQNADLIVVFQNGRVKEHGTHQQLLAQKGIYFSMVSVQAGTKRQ

| IC50 [nM] | SMILES |
| --- | --- |
| 170 | Cc1cccc(N2CCN(CC(O)COc3cccc(C(=O)c4ccccc4)c3)CC2)c1C (configuration not stated) |
| 650 | Cc1cccc(N2CCN(CC(O)COc3ccc(C(=O)c4ccccc4)cc3)CC2)c1C (configuration not stated) |
| 500 | Cc1ccccc1N1CCN(CC(O)COc2ccc(C(=O)c3ccccc3)cc2)CC1 (configuration not stated) |
| 9480 | CC(=O)c1cc(C)ccc1OCC(O)CN1CCN(CC(O)COc2ccccc2C(=O)c2ccccc2)CC1 (configuration not stated) |
| 200 | Cc1ccccc1N1CCN(CC(O)COc2cccc(C(=O)c3ccccc3)c2)CC1 (configuration not stated) |
| 380 | Cc1ccc(NC(=S)N2CCN(CC(O)COc3ccccc3C(=O)c3ccccc3)CC2)cc1 (configuration not stated) |
| 13400 | O=C(c1ccccc1)c1ccccc1OCC(O)CN1CCOCC1 (configuration not stated) |
| 150 | O=C(c1ccccc1)c1ccccc1OCC(O)CN1CCN(c2ccc(F)cc2)CC1 (configuration not stated) |
| 2180 | O=C(c1ccccc1)c1ccc(OCC(O)CN2CCCCC2)cc1 (configuration not stated) |
| 580 | O=C(c1ccccc1)c1cccc(OCC(O)CN2CCN(c3ccc(F)cc3)CC2)c1 (configuration not stated) |
| 1200 | O=C(c1ccccc1)c1ccccc1OCC(O)CN1CCCCC1 (configuration not stated) |
| 1210 | CCCNCC(O)COc1ccccc1C(=O)c1ccc(C)cc1 (configuration not stated) |
| 50 | O=C(c1ccccc1)c1ccccc1OCC(O)CN1CCN(CC(O)COc2ccccc2C(=O)c2ccccc2)CC1 (configuration not stated) |
| 3550 | O=C(c1ccccc1)c1cccc(OCC(O)CN2CCCCC2)c1 (configuration not stated) |
| 970 | O=C(c1ccccc1)c1ccc(OCC(O)CN2CCN(c3ccc(F)cc3)CC2)cc1 (configuration not stated) |
| 480 | Cc1ccc(NC(=O)N2CCN(CC(O)COc3ccccc3C(=O)c3ccccc3)CC2)cc1 (configuration not stated) |
| 5320 | O=C(c1ccccc1)c1ccc(OCC(O)CN2CCOCC2)cc1 (configuration not stated) |

| SMILES | IC50 [nM] |
| --- | --- |
| O=C(c1ccccc1)c1ccccc1OCC(O)CN1CCC(O)(c2ccccc2)CC1 (configuration not stated) | 310 |

Same assay, conditions: read-out: pIC50 (converted)

| SMILES | IC50 [nM] |
| --- | --- |
| CCOC/C=C/c1ccc(-c2nc(-c3ccc(NC(C)C)cc3)c(-c3ccc(NC(C)C)cc3)[nH]2)cc1 | 31.6 |
| COc1cc2c(cc1OC)CN(CCc1ccc(NC(=O)c3cc(OC)c(OC)cc3NC(=O)c3cnc4ccccc4c3)cc1)CC2 | 33.1 |
| O=C(CCc1ccccc1)c1ccccc1OCC(O)CN1CCCCC1 (configuration not stated) | 603 |
| O=C(CCc1ccccc1)c1ccccc1OCC(O)CN1CCC(O)(c2ccccc2)CC1 (configuration not stated) | 57.5 |
